Reference: the NIST ThermoML archive (doi:10.1016/j.jct.2014.03.014)
Several values for one entry are separate records, joined by “and”; a condition that tells them apart may be missing. Equal entries are not always repeated.

Conditions: Liquid, Closed cell (Static) method

FC(F)CC(F)(F)F [1,1,1,3,3-pentafluoropropane]
Conditions | vapor or sublimation pressure
293.15 K | 122.7 kPa
295.08 K | 132.2 kPa
295.57 K | 134.7 kPa
296.57 K | 139.9 kPa
297.57 K | 145.2 kPa
298.57 K | 150.6 kPa and 150.7 kPa
298.58 K | 150.7 kPa
299.61 K | 156.5 kPa
300.61 K | 162.4 kPa
301.62 K | 168.4 kPa
302.63 K | 174.6 kPa
303.15 K | 177.9 kPa
303.64 K | 181 kPa
304.64 K | 187.6 kPa
305.65 K | 194.3 kPa
306.66 K | 201.2 kPa
307.67 K | 208.3 kPa
308.68 K | 215.7 kPa
309.7 K | 223.3 kPa
310.72 K | 231.1 kPa
311.74 K | 239.1 kPa
313.15 K | 250.3 kPa
313.71 K | 255.2 kPa
315.74 K | 272.6 kPa
317.76 K | 290.8 kPa
318.78 K | 300.3 kPa
319.77 K | 309.9 kPa
321.71 K | 329.1 kPa
323.15 K | 344 kPa
323.73 K | 349.9 kPa
325.71 K | 371.6 kPa
327.68 K | 394 kPa
329.67 K | 417.9 kPa
330.68 K | 430.4 kPa
331.7 K | 443.4 kPa
333.71 K | 469.6 kPa
335.73 K | 497.1 kPa
337.74 K | 525.9 kPa
338.75 K | 540.8 kPa
339.77 K | 556.1 kPa
341.82 K | 587.9 kPa
343.82 K | 620.4 kPa
343.88 K | 621 kPa
345.87 K | 654.6 kPa
347.86 K | 689.5 kPa
348.87 K | 707.6 kPa and 707.7 kPa
349.86 K | 725.9 kPa
350.86 K | 744.6 kPa
351.87 K | 763.8 kPa
352.87 K | 783.3 kPa

CC(C)C [2-methylpropane]
Conditions | vapor or sublimation pressure [kPa]
293.15 K | 302.2
293.58 K | 306.7
295.58 K | 325.6
297.58 K | 345.2
299.59 K | 365.9
301.61 K | 387.6
303.15 K | 404.7
303.62 K | 410.2
305.63 K | 433.9
307.64 K | 458.6
309.65 K | 484.2
311.66 K | 510.9
313.15 K | 531.6
313.69 K | 538.7
315.7 K | 567.9
317.73 K | 598.1
319.72 K | 629
321.75 K | 661.7
323.15 K | 685.6
323.82 K | 696.1
325.77 K | 730.9
327.73 K | 765.3
329.74 K | 802.7
331.72 K | 840.8
333.71 K | 880.5
335.74 K | 922.5
337.79 K | 966.2
339.85 K | 1011.5
341.75 K | 1054.5
343.78 K | 1102.5
343.88 K | 1105.1
345.86 K | 1153.1
347.86 K | 1204.4
349.9 K | 1256.3
351.91 K | 1309.8
353.91 K | 1365.1
